One may read the IC50 as the concentration that gives 50% inhibition.

Read-outs that look alike come from different tables or passages of the source.

This assay concerns the target T1, Human GO (Homo sapiens, UniProt Q9UJM8).
T1 construct: purchased Novus Biologicals NBP1-72412
T1 sequence (Q9UJM8 1-370): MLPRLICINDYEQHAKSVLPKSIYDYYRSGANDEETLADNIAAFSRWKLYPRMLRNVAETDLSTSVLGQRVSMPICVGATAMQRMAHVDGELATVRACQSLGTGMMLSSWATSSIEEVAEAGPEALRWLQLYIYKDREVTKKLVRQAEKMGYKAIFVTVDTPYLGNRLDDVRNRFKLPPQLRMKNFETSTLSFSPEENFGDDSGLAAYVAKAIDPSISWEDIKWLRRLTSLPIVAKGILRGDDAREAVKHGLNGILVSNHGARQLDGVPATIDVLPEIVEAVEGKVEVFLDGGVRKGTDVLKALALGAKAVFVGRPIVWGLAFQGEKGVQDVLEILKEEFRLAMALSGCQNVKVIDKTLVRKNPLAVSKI
Nature of the assay: GO enzymatic assay (coupled fluorescence/HRP assay, glycolate substrate). It is filed as biochemical. Here is the method: Assay 1: GO Enzymatic Assay
GO was incubated with its substrate, glycolate, in 50 mM potassium phosphate buffer, pH 7. […] The enzyme was optimized and the kinetics was determined.
Compound inhibition was determined by adding various concentrations of inhibitors in the GO enzyme assay. The IC50 value for each measured compound was generated from sigmoidal dose-response (variable slope) curves with GraphPad Prism software (GraphPad Software, Inc., San Diego, Calif.) using the percent inhibition of GO activity relative to DMSO control.

[1] abbreviates: Table 1, read-out: Range (range of IC50 values calculated from the enzymatic assays).

`O=C(O)c1[nH]nnc1Sc1ccc(-c2ccc(Cl)c(OC(F)(F)F)c2)cc1` [Compound 30, 4-((4′-chloro-3′-(trifluoromethoxy)-[1,1′-biphenyl]-4-yl)thio)-1H-1,2,3-triazole-5-carboxylic acid]: under setting [1], the IC50 was less than 100 nM.
Same read-out and setting: the figure for `O=C(O)c1[nH]nnc1Sc1ccc(-c2cccc(OC(F)(F)F)c2Cl)cc1` [Compound 31, 4-((2′-chloro-3′-(trifluoromethoxy)-[1,1′-biphenyl]-4-yl)thio)-1H-1,2,3-triazole-5-carboxylic acid] is less than 100 nM; for `O=C(O)c1[nH]nnc1Sc1ccc(-c2ccc(OC(F)(F)F)c(Cl)c2)cc1` [Compound 32, 4-((3′-chloro-4′-(trifluoromethoxy)-[1,1′-biphenyl]-4-yl)thio)-1H-1,2,3-triazole-5-carboxylic acid] it is less than 100 nM; for `COC(=O)c1[nH]nnc1Sc1ccc(-c2ccc(OC(F)(F)F)cc2)cc1` [Compound 33, methyl 4-((4′-(trifluoromethoxy)-[1,1′-biphenyl]-4-yl)thio)-1H-1,2,3-triazole-5-carboxylate] it is greater than 10000 nM.
As to `CCCCOc1ccc2sc(Sc3nn[nH]c3C(=O)O)nc2c1` [Compound 34, 4-((5-butoxybenzo[d]thiazol-2-yl)thio)-1H-1,2,3-triazole-5-carboxylic acid], the IC50 under setting [1] was 100 to 1000 nM.
The same measure, in the same setting: the figure for `Cn1c(Sc2nn[nH]c2C(=O)O)cnc1-c1ccc(Cl)c(Cl)c1` [Compound 35, 4-((2-(3,4-dichlorophenyl)-1-methyl-1H-imidazol-5-yl)thio)-1H-1,2,3-triazole-5-carboxylic acid 2,2,2-trifluoroacetate] is 100 to 1000 nM; for `O=C(O)c1[nH]nnc1Sc1csc(-c2ccc(Cl)c(Cl)c2)c1` [Compound 36, 4-((5-(3,4-dichlorophenyl)thiophen-3-yl)thio)-1H-1,2,3-triazole-5-carboxylic acid] it is less than 100 nM.
On to `CN(C)CCOC(=O)c1[nH]nnc1Sc1ccc(-c2ccc(OC(F)(F)F)cc2)cc1` [Compound 37, 2-(dimethylamino)ethyl 4-((4′-(trifluoromethoxy)-[1,1′-biphenyl]-4-yl)thio)-1H-1,2,3-triazole-5-carboxylate], for which the IC50 under setting [1] was greater than 10000 nM.
Still for that read-out and setting: under `O=C(O)c1[nH]nnc1Sc1csc(-c2ccc(OC(F)(F)F)c(Cl)c2)n1` [Compound 39, 4-((2-(3-chloro-4-(trifluoromethoxy)phenyl)thiazol-4-yl)thio)-1H-1,2,3-triazole-5-carboxylic acid] stands less than 100 nM; under `COC(=O)c1[nH]nnc1Sc1csc(-c2ccc(OC(F)(F)F)c(Cl)c2)n1` [Compound 40, methyl 4-((2-(3-chloro-4-(trifluoromethoxy)phenyl)thiazol-4-yl)thio)-1H-1,2,3-triazole-5-carboxylate], greater than 10000 nM.
Regarding `O=C(O)c1[nH]nnc1Sc1ccc(Cl)c(Cl)c1` [Compound 41, 4-((3,4-dichlorophenyl)thio)-1H-1,2,3-triazole-5-carboxylic acid], the IC50 was less than 100 nM.
Consider `O=C(O)c1[nH]nnc1Sc1cccc(-c2ccc(OC(F)(F)F)cc2)c1` [Compound 42, 4-((4′-(trifluoromethoxy)-[1,1′-biphenyl]-3-yl)thio)-1H-1,2,3-triazole-5-carboxylic acid], for which, under setting [1], the IC50 is less than 100 nM.
On the same count and under the same terms, the figure for `O=C(O)c1[nH]nnc1Sc1nc(-c2ccc(OC(F)(F)F)c(Cl)c2)cs1` [Compound 43, 4-((4-(3-chloro-4-(trifluoromethoxy)phenyl)thiazol-2-yl)thio)-1H-1,2,3-triazole-5-carboxylic acid] is less than 100 nM; for `COC(=O)c1[nH]nnc1Sc1nc(-c2ccc(OC(F)(F)F)c(Cl)c2)cs1` [Compound 44, methyl 4-((4-(3-chloro-4-(trifluoromethoxy)phenyl)thiazol-2-yl)thio)-1H-1,2,3-triazole-5-carboxylate] it is greater than 10000 nM; for `O=C(OC1COC1)c1[nH]nnc1Sc1ccc(-c2ccc(OC(F)(F)F)cc2)cc1` [Compound 45, oxetan-3-yl 4-((4′-(trifluoromethoxy)-[1,1′-biphenyl]-4-yl)thio)-1H-1,2,3-triazole-5-carboxylate] it is 1000 to 10000 nM.
Still for that read-out and setting: under `O=C(O)c1[nH]nnc1Sc1ccc2cc(Cl)ccc2n1` [Compound 46, 4-((6-chloroquinolin-2-yl)thio)-1H-1,2,3-triazole-5-carboxylic acid] stands 100 to 1000 nM; under `O=C(O)c1[nH]nnc1Sc1ccc(-c2ccc(Cl)cc2)c(Cl)c1` [Compound 47, 4-((2,4′-dichloro-[1,1′-biphenyl]-4-yl)thio)-1H-1,2,3-triazole-5-carboxylic acid], less than 100 nM; under `O=C(O)c1[nH]nnc1Sc1ccc(-c2ccc(Cl)cc2)cc1Cl` [Compound 48, 4-((3,4′-dichloro-[1,1′-biphenyl]-4-yl)thio)-1H-1,2,3-triazole-5-carboxylic acid], less than 100 nM.
Regarding `O=C(O)c1[nH]nnc1Sc1ccc(F)c(F)c1` [Compound 49, 4-((3,4-difluorophenyl)thio)-1H-1,2,3-triazole-5-carboxylic acid], the 50% inhibitory concentration (IC50) under setting [1] was less than 100 nM.
Still for that read-out and setting: under `O=C(O)c1[nH]nnc1Sc1ccc2c(c1)CCCC2` [Compound 50, 4-((5,6,7,8-tetrahydronaphthalen-2-yl)thio)-1H-1,2,3-triazole-5-carboxylic acid] stands less than 100 nM; under `CC(C)(C)C(=O)OCn1nnc(Sc2ccc(-c3ccc(OC(F)(F)F)cc3)cc2)c1C(=O)O` [Compound 51, 1-((pivaloyloxy)methyl)-4-((4′-(trifluoromethoxy)-[1,1′-biphenyl]-4-yl)thio)-1H-1,2,3-triazole-5-carboxylic acid], 100 to 1000 nM.
Still for that read-out and setting: the figure for `CC(C)C(=O)OCn1nnc(Sc2ccc(-c3ccc(OC(F)(F)F)cc3)cc2)c1C(=O)O` [Compound 52, 1-((isobutyryloxy)methyl)-4-((4′-(trifluoromethoxy)-[1,1′-biphenyl]-4-yl)thio)-1H-1,2,3-triazole-5-carboxylic acid] is 100 to 1000 nM.
The same measure, in the same setting: the figure for `O=C(O)c1[nH]nnc1Sc1ccc2ncsc2c1` [Compound 53, 4-(benzo[d]thiazol-6-ylthio)-1H-1,2,3-triazole-5-carboxylic acid 2,2,2-trifluoroacetate] is less than 100 nM; for `CC(C)(C)C(=O)OCOC(=O)c1[nH]nnc1Sc1ccc(-c2ccc(OC(F)(F)F)cc2)cc1` [Compound 54, (pivaloyloxy)methyl 4-((4′-(trifluoromethoxy)-[1,1′-biphenyl]-4-yl)thio)-1H-1,2,3-triazole-5-carboxylate] it is 1000 to 10000 nM.
As to `CC(C)C(=O)OCOC(=O)c1[nH]nnc1Sc1ccc(-c2ccc(OC(F)(F)F)cc2)cc1` [Compound 55, (isobutyryloxy)methyl 4-((4′-(trifluoromethoxy)-[1,1′-biphenyl]-4-yl)thio)-1H-1,2,3-triazole-5-carboxylate], the IC50 under setting [1] was 100 to 1000 nM.
On the same count and under the same terms, the figure for `O=C(O)c1[nH]nnc1Sc1ccc2cc(Cl)ccc2c1` [Compound 56, 4-((6-chloronaphthalen-2-yl)thio)-1H-1,2,3-triazole-5-carboxylic acid] is less than 100 nM; for `O=C(O)c1[nH]nnc1SC1Cc2cc(Cl)c(Cl)cc2C1` [Compound 57, 4-((5,6-dichloro-2,3-dihydro-1H-inden-2-yl)thio)-1H-1,2,3-triazole-5-carboxylic 2,2,2-trifluoroacetate] it is less than 100 nM.
The same measure, in the same setting: under `CCOC(=O)c1[nH]nnc1Nc1ccc(-c2ccc(Cl)cc2)cc1` [Compound 58-1, ethyl 4-((4′-chloro-[1,1′-biphenyl]-4-yl)amino)-1H-1,2,3-triazole-5-carboxylate] stands greater than 10000 nM; under `O=C(O)c1[nH]nnc1Nc1ccc(-c2ccc(Cl)cc2)cc1` [Compound 58-2, 4-((4′-chloro-[1,1′-biphenyl]-4-yl)amino)-1H-1,2,3-triazole-5-carboxylic acid], less than 100 nM; under `O=C(O)c1[nH]nnc1Nc1nc(-c2ccc(Cl)c(Cl)c2)cs1` [Compound 59, 4-((4-(3,4-dichlorophenyl)thiazol-2-yl)amino)-1H-1,2,3-triazole-5-carboxylic acid], less than 100 nM.
Still for that read-out and setting: the figure for `O=C(O)c1[nH]nnc1Nc1ccc(-c2ccc(Cl)c(Cl)c2)cc1` [Compound 60, 4-((3′,4′-dichloro-[1,1′-biphenyl]-4-yl)amino)-1H-1,2,3-triazole-5-carboxylic acid] is less than 100 nM; for `O=C(O)c1[nH]nnc1Nc1csc(-c2ccc(Cl)c(Cl)c2)n1` [Compound 61, ammonium 4-((2-(3,4-dichlorophenyl)thiazol-4-yl)amino)-1H-1,2,3-triazole-5-carboxylate] it is less than 100 nM.
`O=C(O)c1[nH]nnc1Nc1ccc(-c2ccc(OC(F)(F)F)cc2)cc1` [Compound 62, 4-((4′-(trifluoromethoxy)-[1,1′-biphenyl]-4-yl)amino)-1H-1,2,3-triazole-5-carboxylic acid 2,2,2-trifluoroacetate]: the IC50 under setting [1] is less than 100 nM.
The same measure, in the same setting: the figure for `CN(c1csc(-c2ccc(Cl)c(Cl)c2)n1)c1nn[nH]c1C(=O)O` [Compound 63, 4-((2-(3,4-dichlorophenyl)thiazol-4-yl)(methyl)amino)-1H-1,2,3-triazole-5-carboxylic acid] is 100 to 1000 nM.
The same measure, in the same setting: under `O=C(O)c1[nH]nnc1Nc1nc(-c2ccc(OC(F)(F)F)c(Cl)c2)cs1` [Compound 64, 4-((4-(3-chloro-4-(trifluoromethoxy)phenyl)thiazol-2-yl)amino)-1H-1,2,3-triazole-5-carboxylic acid] stands less than 100 nM.
